Tested on: FLU A (PR/8/34)
Assay: Flu A Neuraminidase Antiviral Assay
Format: cell-based
Details: not given

SMILES	EC50 [nM]
CN1C(=O)c2c(O)c(=O)ccn2N2C(c3ccccc3Cl)C(CCO)CCC12 (stereo not drawn) [Compound 66B, 1-(2-chlorophenyl)-7-hydroxy-2-(2-hydroxyethyl)-5-methyl-1,2,3,4,4a,5-hexahydrodipyrido[1,2-b:2′,1′-f][1,2,4]triazine-6,8-dione]	182
CCN1C(=O)c2c(O)c(=O)ccn2N2C(c3ccccc3C)C(CC(F)(F)F)CCC12 (single isomer, unassigned) [Compound 93B, 5-ethyl-7-hydroxy-1-(o-tolyl)-2-(2,2,2-trifluoroethyl)-1,2,3,4,4a,5-hexahydrodipyrido[1,2-b:2′,1′-f][1,2,4]triazine-6,8-dione]	2.9
CN1C(=O)c2c(O)c(=O)ccn2N2C(c3ccccc3)C(CC3CC3(F)F)CCC12 (single isomer, unassigned) [Compound 114C, 2-((2,2-difluorocyclopropyl)methyl)-7-hydroxy-5-methyl-1-phenyl-1,2,3,4,4a,5-hexahydrodipyrido[1,2-b:2′,1′-f][1,2,4]triazine-6,8-dione]	5.3
CCN1C(=O)c2c(O)c(=O)ccn2N2C(c3ccccc3)C(c3ccc(F)c(F)c3)CCC12 (single isomer, unassigned) [Compound 94A, 2-(3,4-difluorophenyl)-5-ethyl-7-hydroxy-1-phenyl-1,2,3,4,4a,5-hexahydrodipyrido[1,2-b:2′,1′-f][1,2,4]triazine-6,8-dione]	397
CN1C(=O)c2c(O)c(=O)ccn2N2C1CCCC2(C)c1cccc(F)c1 (single isomer, unassigned) [Compound 25B, 1-(3-fluorophenyl)-7-hydroxy-1,5-dimethyl-1,2,3,4,4a,5-hexahydrodipyrido[1,2-b:2′,1′-f][1,2,4]triazine-6,8-dione]	70.7
CN1C(=O)c2c(O)c(=O)ccn2N2C(c3ccccc3)C3CCC(C3)C12 (single isomer, unassigned) [Compound 9B, 4-hydroxy-6-methyl-11-phenyl-6a,7,8,9,10,11-hexahydro-3H-7,10-methanopyrido[1′,2′:1,6][1,2,4]triazino[2,3-a]azepine-3,5(6H)-dione]	166
CN1C(=O)c2c(O)c(=O)ccn2N2C1CCCC2(C)c1ccccn1 (single isomer, unassigned) [Compound 30A, 7-hydroxy-1,5-dimethyl-1-(pyridin-2-yl)-1,2,3,4,4a,5-hexahydrodipyrido[1,2-b:2′,1′-f][1,2,4]triazine-6,8-dione]	16.6
Cc1cc(=O)c(O)c2n1N1C(c3ccccc3)C(CC(F)(F)F)CCC1N(C)C2=O (single isomer, unassigned) [Compound 132B, 7-hydroxy-5,10-dimethyl-1-phenyl-2-(2,2,2-trifluoroethyl)-1,2,3,4,4a,5-hexahydrodipyrido[1,2-b:2′,1′-f][1,2,4]triazine-6,8-dione]	21.3
CN1C(=O)c2c(O)c(=O)ccn2N2C(c3ccc(F)cc3)CCCC12 (single isomer, unassigned) [Compound 2A, 1-(4-fluorophenyl)-7-hydroxy-5-methyl-1,2,3,4,4a,5-hexahydrodipyrido[1,2-b:2′,1′-f][1,2,4]triazine-6,8-dione]	109
CC1(c2nccs2)CCCC2N(CC(F)(F)F)C(=O)c3c(O)c(=O)ccn3N21 (single isomer, unassigned) [Compound 41A, 7-hydroxy-1-methyl-1-(thiazol-2-yl)-5-(2,2,2-trifluoroethyl)-1,2,3,4,4a,5-hexahydrodipyrido[1,2-b:2′,1′-f][1,2,4]triazine-6,8-dione]	> 8100
Cc1c(F)cccc1C1C(CC(F)(F)F)CCC2N(C)C(=O)c3c(O)c(=O)ccn3N12 (single isomer, unassigned) [Compound 80B, 1-(3-fluoro-2-methylphenyl)-7-hydroxy-5-methyl-2-(2,2,2-trifluoroethyl)-1,2,3,4,4a,5-hexahydrodipyrido[1,2-b:2′,1′-f][1,2,4]triazine-6,8-dione]	3.3
Cc1ccccc1C1C(CCC(F)(F)F)CCC2N(C)C(=O)c3c(O)c(=O)ccn3N12 (single isomer, unassigned) [Compound 95B, 7-hydroxy-5-methyl-1-(o-tolyl)-2-(3,3,3-trifluoropropyl)-1,2,3,4,4a,5-hexahydrodipyrido[1,2-b:2′,1′-f][1,2,4]triazine-6,8-dione]	7.5
C=CCC1CCC2N(C)C(=O)c3c(O)c(=O)ccn3N2C1c1ccccc1Cl (stereo not drawn) [Compound 64B, 2-allyl-1-(2-chlorophenyl)-7-hydroxy-5-methyl-1,2,3,4,4a,5-hexahydrodipyrido[1,2-b:2′,1′-f][1,2,4]triazine-6,8-dione]	28.4
CN1C(=O)c2c(O)c(=O)ccn2N2C(c3ccccc3)C(c3ccc(F)c(F)c3F)CCC12 (single isomer, unassigned) [Compound 85C, 7-hydroxy-5-methyl-1-phenyl-2-(2,3,4-trifluorophenyl)-1,2,3,4,4a,5-hexahydrodipyrido[1,2-b:2′,1′-f][1,2,4]triazine-6,8-dione]	> 810
CN1C(=O)c2c(O)c(=O)ccn2N2C1CCCC2(C)c1ncc(F)cc1F (single isomer, unassigned) [Compound 46B, 1-(3,5-difluoropyridin-2-yl)-7-hydroxy-1,5-dimethyl-1,2,3,4,4a,5-hexahydrodipyrido[1,2-b:2′,1′-f][1,2,4]triazine-6,8-dione]	> 8100
CC1(c2ccccn2)CCCC2N(CC(F)(F)F)C(=O)c3c(O)c(=O)ccn3N21 (single isomer, unassigned) [Compound 39B, 7-hydroxy-1-methyl-1-(pyridin-2-yl)-5-(2,2,2-trifluoroethyl)-1,2,3,4,4a,5-hexahydrodipyrido[1,2-b:2′,1′-f][1,2,4]triazine-6,8-dione]	10.1
CC1CC2N(C)C(=O)c3c(O)c(=O)ccn3N2C(C)(c2ccccc2)C1 (single isomer, unassigned) [Compound 43B, 7-hydroxy-1,3,5-trimethyl-1-phenyl-1,2,3,4,4a,5-hexahydrodipyrido[1,2-b:2′,1′-f][1,2,4]triazine-6,8-dione]	1100
CN1C(=O)c2c(O)c(=O)ccn2N2C(c3ccccc3Cl)C(CC(F)(F)F)CCC12 (single isomer, unassigned) [Compound 119A, 1-(2-chlorophenyl)-7-hydroxy-5-methyl-2-(2,2,2-trifluoroethyl)-1,2,3,4,4a,5-hexahydrodipyrido[1,2-b:2′,1′-f][1,2,4]triazine-6,8-dione]	3080
CCCC1CCC2N(C)C(=O)c3c(O)c(=O)ccn3N2C1(C)c1ccccc1 (single isomer, unassigned) [Compound 33B, 7-hydroxy-1,5-dimethyl-1-phenyl-2-propyl-1,2,3,4,4a,5-hexahydrodipyrido[1,2-b:2′,1′-f][1,2,4]triazine-6,8-dione]	1880
CN1C(=O)c2c(O)c(=O)ccn2N2C1CCCC2(C)c1c(F)cccc1F (single isomer, unassigned) [Compound 23A, 1-(2,6-difluorophenyl)-7-hydroxy-1,5-dimethyl-1,2,3,4,4a,5-hexahydrodipyrido[1,2-b:2′,1′-f][1,2,4]triazine-6,8-dione]	> 8100

Same assay, conditions: MDCK, 48 h

SMILES	EC50 [nM]
CC(C)O[C@@H]1CC[C@H]2N(C)C(=O)c3c(O)c(=O)ccn3N2[C@@H]1c1ccccc1 [Compound 156, (1R,2R,4aS)-7-hydroxy-2-isopropoxy-5-methyl-1-phenyl-1,2,3,4,4a,5-hexahydrodipyrido[1,2-b:2′,1′-f][1,2,4]triazine-6,8-dione]	38
